According to patent US20260207704A1, “STAPLED PEPTIDES AND METHODS THEREOF” (priority 2022, published 2026):
Like-named read-outs stand apart in the source and are kept apart here.

Tested on: DLD1 reporter
Experiment: reporter assay (DLD1 reporter assay)
Assay type: cell-based
Conditions: read-out: DLD1 4% Abs IC50
Excerpt: Various technologies can be utilized for characterizing and/or assessing provided technologies (e.g., agents (e.g., various peptides), compositions, methods, etc.) in accordance with the present disclosure. As described herein, in some embodiments, a useful technology is or comprises fluorescence polarization. In some embodiments, a useful technology assesses LogP or LogD. In some embodiments, a useful technology is or comprises a CHI LogD assay. In some embodiments, a useful technology assesses solubility. In some embodiments, a useful technology is or comprises NanoBRET. In some embodiments, a useful technology is or comprises a reporter assay (e.g., DLD1 reporter assay). In some embodiments, a useful technology is or comprises alphascreen. Certain useful protocols are described in the Examples. Those skilled in the art appreciate that suitable adjustments may be made to such protocols, e.g., according to specific conditions, agents, purposes, etc.
Various technologies can be utilized to assess technologies of the present disclosure. For example, in some embodiments, solubility, LogD, interactions with targets, etc. of various agents such as stapled peptides were assessed using technologies described in WO 2022/261257 (e.g., those in its Examples). In some embodiments, solubility, shake flask LogD, and binding to beta-catenin were assessed. In some embodiments, an assay for assessing interactions, e.g., with beta-catenin, was fluorescence polarization as described in WO 2022/261257. In some embodiments, an assay was Nano-BRET target engagement assay that assessed beta-catenin/TCF4 engagement as described in WO 2022/261257. In some embodiments, an assay was a reporter assay as reported in Example 4 of WO 2022/261257. In some embodiments, an assay was a COLO320DM proliferation assay as reported in Example 4 of WO 2022/261257.

Row | SMILES | IC50 (DLD1 4%) | IC50 (DLD1 reporter, 4%)
1 | CC(=O)N1CCC[C@]12CC=CCCCC1(CCCC=CCCCOC(=O)N3CC[C@@]4(C3)NC(=O)[C@H](CCCCNC(=O)CC[C@@H](C(=O)N[C@@H](CC(C)C)C(=O)N[C@@H](CO)C(N)=O)NC(=O)[C@H](Cc3csc5ccccc35)NC(=O)[C@H](Cc3ccccc3C(F)(F)F)NC4=O)NC(=O)[C@H](Cc3ccccc3)NC(=O)[C@H](C)NC(=O)C(C)(C)NC(=O)[C@H](Cc3cccc(C(=O)O)c3)NC(=O)[C@H](CC(=O)O)NC1=O)NC(=O)[C@H](CC(C)(C)C)NC(=O)[C@H](CC(N)=O)NC2=O (relative stereo) [I-144, Ac-PL3-Asn-Npg-B5-Asp-3COOHF-Aib-Ala-Phe-Lys*3-PyrS2-2F3MeF-BztA-GlnR*3-Leu-Ser-NH2] | 1000 to 5000 nM | 
2 | CC(=O)N1CCC[C@]12CC=CCCCC1(CCCC=CCCCOC(=O)N3CC[C@@]4(C3)NC(=O)[C@H](CCCCNC(=O)CC[C@@H](C(=O)N[C@@H](C)C(N)=O)NC(=O)[C@H](Cc3csc5ccccc35)NC(=O)[C@H](Cc3ccccc3C(F)(F)F)NC4=O)NC(=O)[C@H](Cc3ccccc3)NC(=O)[C@H](C)NC(=O)[C@H](C(C)C)NC(=O)[C@H](CN(CC(=O)O)CC(F)(F)F)NC(=O)[C@H](CC(=O)O)NC1=O)NC(=O)[C@H](CC(C)(C)C)NC(=O)[C@H](CC(=O)O)NC2=O (single isomer, unassigned) [I-125, Ac-PL3-Asp-Npg-B5-Asp-TfeGA-Val-Ala-Phe-Lys*3-PyrS2-2F3MeF-BztA-GlnR*3-Ala-NH2] | 1000 to 5000 nM | 
3 | CC(=O)N1CCC[C@]12CC=CCCCC1(CCCC=CCCCOC(=O)N3CC[C@@]4(C3)NC(=O)[C@H](CCCCNC(=O)CC[C@@H](C(=O)N[C@@H](C)C(N)=O)NC(=O)[C@H](Cc3csc5ccccc35)NC(=O)[C@H](Cc3ccccc3C(F)(F)F)NC4=O)NC(=O)[C@H](Cc3ccccc3)NC(=O)[C@H](C)NC(=O)[C@H](CC(C)(C)C)NC(=O)[C@H](Cc3cccc(C(=O)O)c3)NC(=O)[C@H](CC(=O)O)NC1=O)NC(=O)[C@H](CC(C)(C)C)NC(=O)[C@H](CC(=O)O)NC2=O (single isomer, unassigned) [I-99, Ac-PL3-Asp-Npg-B5-Asp-3COOHF-Npg-Ala-Phe-Lys*3-PyrS2-2F3MeF-BztA-GlnR*3-Ala-NH2] | ≤ 1000 nM | 
4 | CC(=O)N1CCC[C@]12CC=CCCCC1(CCCC=CCCCOC(=O)N3CC[C@@]4(C3)NC(=O)[C@H](CCCCNC(=O)CC[C@@H](C(=O)N[C@@H](CC(C)C)C(N)=O)NC(=O)[C@H](Cc3csc5ccccc35)NC(=O)[C@H](Cc3ccccc3C(F)(F)F)NC4=O)NC(=O)[C@H](Cc3ccccc3)NC(=O)[C@H](C)NC(=O)[C@H](C)NC(=O)[C@H](Cc3cccc(C(=O)O)c3)NC(=O)[C@H](CC(=O)O)NC1=O)NC(=O)[C@H](CC1CCCCC1)NC(=O)[C@H](CC(=O)O)NC2=O (single isomer, unassigned) [I-106, Ac-PL3-Asp-Cha-B5-Asp-3COOHF-Ala-Ala-Phe-Lys*3-PyrS2-2F3MeF-BztA-GlnR*3-Leu-NH2] | ≤ 1000 nM | 
5 | CC(=O)N1CCC[C@]12CC=CCCCC1(CCCC=CCCCOC(=O)N3CC[C@@]4(C3)NC(=O)[C@H](CCCCNC(=O)CC[C@@H](C(=O)N[C@@H](CC(C)C)C(N)=O)NC(=O)[C@H](Cc3csc5ccccc35)NC(=O)[C@H](Cc3ccccc3C(F)(F)F)NC4=O)NC(=O)[C@H](Cc3ccccc3)NC(=O)[C@H](C)NC(=O)[C@H](CC(C)(C)C)NC(=O)[C@H](Cc3cccc(C(=O)O)c3)NC(=O)[C@H](CC(=O)O)NC1=O)NC(=O)[C@H](CC(C)(C)C)NC(=O)[C@H](CC(=O)O)NC2=O (single isomer, unassigned) [I-109, Ac-PL3-Asp-Npg-B5-Asp-3COOHF-Npg-Ala-Phe-Lys*3-PyrS2-2F3MeF-BztA-GlnR*3-Leu-NH2] | 1000 to 5000 nM | 
6 | CC(=O)N1CCC[C@]12CC=CCCCC1(CCCC=CCCCOC(=O)N3CC[C@@]4(C3)NC(=O)[C@H](Cc3cn(nn3)CCCC[C@@H](C(=O)N[C@@H](C)C(N)=O)NC(=O)[C@H](Cc3csc5ccccc35)NC(=O)[C@H](Cc3ccsc3)NC4=O)NC(=O)[C@H](Cc3ccccc3)NC(=O)[C@H](C)NC(=O)C(C)(C)NC(=O)[C@H](Cc3cccc(C(=O)O)c3)NC(=O)[C@H](CC(=O)O)NC1=O)NC(=O)[C@H](CC(C)(C)C)NC(=O)[C@H](CC(=O)O)NC2=O (stereo partly drawn) [I-336, Ac-PL3-Asp-Npg-B5-Asp-3COOHF-Aib-Ala-Phe-sAla*3-PyrS2-3Thi-BztA-TriAzLys*3-Ala-NH2] |  | 1000 to 5000 nM
7 | CC(=O)N1CCC[C@]12CC=CCCCC1(CCCC=CCCCOC(=O)N3CC[C@@]4(C3)NC(=O)[C@H](CCCCNC(=O)CCC[C@@H](C(=O)N[C@@H](C)C(N)=O)NC(=O)[C@H](Cc3csc5ccccc35)NC(=O)[C@H](Cc3ccsc3)NC4=O)NC(=O)[C@H](Cc3ccccc3)NC(=O)[C@H](C)NC(=O)[C@H](C)NC(=O)[C@H](Cc3cccc(C(=O)O)c3)NC(=O)[C@H](CC(=O)O)NC1=O)NC(=O)[C@H](CC(C)(C)C)NC(=O)[C@H](CC(=O)O)NC2=O (relative stereo) [I-183, Ac-PL3-Asp-Npg-B5-Asp-3COOHF-Ala-Ala-Phe-Lys*3-PyrS2-3Thi-BztA-hGlnR*3-Ala-NH2] | 1000 to 5000 nM | 
8 | CC(=O)N1CCC[C@]12CC=CCCCC1(CCCC=CCCCOC(=O)N3CC[C@@]4(C3)NC(=O)[C@H](CCCCNC(=O)CC[C@@H](C(=O)N[C@@H](CC(C)C)C(=O)N[C@@H](CO)C(N)=O)NC(=O)[C@H](Cc3csc5ccccc35)NC(=O)[C@H](Cc3ccccc3C(F)(F)F)NC4=O)NC(=O)[C@H](Cc3ccccc3)NC(=O)[C@H](C)NC(=O)C3(CCCC3)NC(=O)[C@H](Cc3cccc(C(=O)O)c3)NC(=O)[C@H](CC(=O)O)NC1=O)NC(=O)[C@H](CC(C)(C)C)NC(=O)[C@H](CC(=O)O)NC2=O (relative stereo) [I-141, Ac-PL3-Asp-Npg-B5-Asp-3COOHF-CyLeu-Ala-Phe-Lys*3-PyrS2-2F3MeF-BztA-GlnR*3-Leu-Ser-NH2] | ≤ 1000 nM | 
9 | CC(=O)N1CCC[C@]12CC=CCCCC1(CCCC=CCCCOC(=O)N3CC[C@@]4(C3)NC(=O)[C@H](CCCCNC(=O)CC[C@@H](C(=O)NC(C)(C)C(N)=O)NC(=O)[C@H](Cc3csc5ccccc35)NC(=O)[C@H](Cc3ccccc3C(F)(F)F)NC4=O)NC(=O)[C@H](Cc3ccccc3)NC(=O)[C@H](C)NC(=O)[C@H](C)NC(=O)[C@H](CN(CC(=O)O)CC(F)(F)F)NC(=O)[C@H](CC(=O)O)NC1=O)NC(=O)[C@H](CC(C)(C)C)NC(=O)[C@H](CC(=O)O)NC2=O (single isomer, unassigned) [I-127, Ac-PL3-Asp-Npg-B5-Asp-TfeGA-Ala-Ala-Phe-Lys*3-PyrS2-2F3MeF-BztA-GlnR*3-Aib-NH2] | 1000 to 5000 nM | 
10 | CC(=O)N1CCC[C@]12CC=CCCCC1(CCCC=CCCCOC(=O)N3CC[C@@]4(C3)NC(=O)[C@H](CCCCNC(=O)CC[C@@H](C(=O)N[C@@H](CC(C)C)C(=O)N[C@@H](CO)C(N)=O)NC(=O)[C@H](Cc3csc5ccccc35)NC(=O)[C@H](Cc3ccccc3C(F)(F)F)NC4=O)NC(=O)[C@H](Cc3ccccc3)NC(=O)[C@H](C)NC(=O)[C@H](C)NC(=O)[C@H](Cc3cccc(C(=O)O)c3)NC(=O)[C@H](CC(=O)O)NC1=O)NC(=O)[C@H](CC(C)(C)C)NC(=O)[C@H](CC(N)=O)NC2=O (relative stereo) [I-142, Ac-PL3-Asn-Npg-B5-Asp-3COOHF-Ala-Ala-Phe-Lys*3-PyrS2-2F3MeF-BztA-GlnR*3-Leu-Ser-NH2] | > 5000 nM | 
